Assay results published in US20050260253A1, “Transmucosal gel formulations” (Recordati Ireland Limited, priority 2004, published 2005).
Read-outs that look alike come from different tables or passages of the source.

Legend:
[1] = tested on: genital blood flow in female anesthetized rabbits; experiment: Genital tissue oxyhemoglobin (genital engorgement) by laser oximetry, basal and after pelvic nerve stimulation, in vivo model of female sexual arousal; set-up: species or system rabbit (New Zealand White); settings: for nerve-induced increase in genital tissue OxyHb: topical vaginal formulation; for mean AUC of genital tissue OxyHb compared to vehicle-treated control group: 15-35 min; for response to pelvic nerve stimulation (genital tissue oxyhemoglobin) vs control stimulations: vaginal submucosal injection 100 μg
Protocol: The effect of Rec 15/2615 formulation on genital blood flow, a physiologic parameters of female sexual arousal, was measured in both the basal, non-aroused state and following stimulation of the pelvic nerve, which mimics the sexually aroused state, in an established in vivo animal model of female sexual arousal (see, e.g., Munarriz, R., et al., 2003, A review of the physiology and pharmacology of peripheral (vaginal and clitoral) female genital arousal in the animal model, J. Urol. 170(2 Pt 2):S40-44; Min, K., et al., 2000, Sildenafil augments pelvic nerve-mediated female genital sexual arousal in the anesthetized rabbit. Intl. J. Impot. Res. 12(Suppl)3:S32-39; Tarcan, T., et al., 2000, Systemic administration of apomorphine improves the hemodynamic mechanism of clitoral and vaginal engorgement in the rabbit. Int J Impot Res. 12:235-240; Park, K., et al., 1997, Vasculogenic female sexual dysfunction: the hemodynamic basis for vaginal engorgement insufficiency and clitoral erectile insufficiency. Intl. J. Impot. Res. 9:27-37). Each of the foregoing references is incorporated herein by reference in its entirety.
(§1) Female New Zealand White rabbits (4.5 to 5 kg) were anesthetized by intramuscular injection of ketamine (35 mg/kg) and xylazine (5 mg/kg) and secured in the supine position. Anesthesia was maintained as needed with additional intramuscular xylazine (5 mg/ml). A midline neck incision (3 cm) was fashioned to access the carotid artery. A 20-gauge angiocatheter was inserted into the carotid artery for systemic blood pressure measurements. […] Body temperature was maintained with an electric heat pad. Following subcutaneous lidocaine injection, the perivesical space was exposed through a mid-line abdominal incision. The pelvic nerve was identified and carefully dissected under the perivesical fat on the postero-lateral aspect of the upper vagina. Bladder contents were aspirated through the bladder wall with an 18 gauge needle and 50 ml syringe. Under direct vision, a bipolar platinum wire electrode was hooked onto the pelvic nerve without cutting the nerve. Unilateral pelvic nerve stimulation was accomplished with a Grass SD9 stimulator set at normal polarity and repeat mode to generate a 30 second train of square waves with 10 V pulse amplitude, 0.8 msec pulse duration and 2-6 Hz frequency. A laser Doppler flowmetry surface probe (model BLF21D, Transonic System Inc, Ithaca, N.Y., USA) was placed into the rabbit vagina and used to confirm unilateral pelvic nerve stimulation. The interval between stimulations was 10-15 min to prevent nerve exhaustion.
Tissue hemoglobin concentration was determined by a near infrared optical spectroscopy technique using a dual channel laser oximeter (model 96208; ISS, Inc., Champaign, Ill.). This technique utilizes a continuous wave optical spectrometer with a fiber optic array probe consisting of one detector and 8 light sources. The sources emit light in the near infrared spectrum (700-900 nm) which can penetrate a targeted volume of tissue (˜530 mm^3) to an average depth of 7.2 mm beneath the optical fibers. By detecting scattered light, absorption by oxyhemoglobin (OHb) and deoxyhemoglobin can be quantified and total hemoglobin can be calculated. Laser oximetry can thus be utilized to assess local tissue hemodynamics in a non-invasive and continuous fashion. The skin around the labia was carefully shaved to ensure good contact with the optical fibers. The probe (2 cm in length) was positioned longitudinally on the skin overlying the clitoris, labia and vagina, such that the detector fiber was positioned just below the pubic arch. The probe assembly was secured in place by a metal stand. The area over the probe was covered with a black cloth to prevent any interference from natural or artificial ambient light sources.
A flexible 18 gauge catheter was attached to a syringe loaded with hydrogel formulation. The catheter was filled until the formulation reached 3-5 mm from the open end. […]

systemic blood pressure = experiment: Systemic blood pressure via carotid artery catheter in anesthetized rabbits; assay type: in vivo, rabbit (New Zealand White)
Protocol: as §1, with “The interval between stimulations was 10-15 min to prevent nerve exhaustion.” left out

[2] = Plasma concentration of Rec 15/2615 by LC/MS-MS after vaginal application or submucosal injection; assay type: in vivo, rabbit; settings: for concentration at 15 min: female, rabbit, plasma, read-out: Mean plasma levels of Rec 15/2615
Protocol: A flexible 18 gauge catheter was attached to a syringe loaded with hydrogel formulation. The catheter was filled until the formulation reached 3-5 mm from the open end. The catheter was placed 2.5 cm into the vagina and secured to the labia with suture to prevent migration. The syringe was placed on the heating pad to keep the formulation warm. Following control nerve stimulations, 1 ml of formulation was infused into the vagina. Pelvic nerve stimulation was repeated 15 min and 30 min afterwards. Nerve stimulation at the 15 min time point coincided with the time of maximal serum concentration.
Rec 15/2615 hydrochloride (1 mg/ml) was dissolved in 10% (v/v) N,N-dimethylformamide. Prior to the application of the laser oximeter probe, Rec 15/2615 hydrochloride solution was loaded into two 23 gauge infusion sets connected to 1 ml syringes (50 μl per infusion set). Needles were inserted into the distal vaginal wall, just below the mucosal surface, at the 3 and 9 o'clock positions. Following control nerve stimulations, drug was infused into the vagina. Pelvic nerve stimulation was repeated 15 min and 30 min after drug administration.
Blood samples (˜2 ml) were obtained from the carotid artery prior to formulation administration and then […] after formulation administration. Samples were collected in heparinized syringes and transferred into pre-cooled polypropylene tubes on ice. Plasma was obtained by centrifugation at 1200×g for 2 min at 4° C. and stored at −20° C.
0.1 mL of rabbit plasma was transferred to an Eppendorf tube and 10 μL of internal standard methanolic solution (0.2 μg/mL of 4-amino-6,7-dimethoxy-2-[4-(2-isopropyl-5-methylphenoxy acetyl)-1-piperazinyl]quinazoline (Rec 15/2693) in methanol) were added. 1 mL of acetonitrile was added to each sample and samples were shaken on a multimixer shaker for 1 min. Protein was allowed to precipitate and samples were then centrifuged at 4° C. for 10 min at 2700 g. The organic layer was transferred to a new glass tube and evaporated at 45° C. under a stream of nitrogen. The residue was dissolved in 250 μL of buffer solution containing methanol/10 mM ammonium formate, pH 3.5 (40:60; v/v). Samples were mixed 1 min using a vortex mixer and clarified by centrifugation (5 min×2700 g). The clarified solution was transferred into an autosampler vial. Aliquots of 20 μL were analyzed by LC/MS-MS.

SMILES | effect on genital tissue oxyhemoglobin administered as a gel compared with direct submucosal injection ([1]; formulations 0.075% and 0.15% vs submucosal injection, considering plasma levels at 15 min) | effect on blood pressure (systemic blood pressure; topical vaginal administration, 0.075-0.3% formulations) | effect on systemic blood pressure (systemic blood pressure; vaginal submucosal injection (data not shown)) | concentration at 15 min ([2]; other: submucosal injection into the distal vaginal wall, 15 min after direct submucosal injection of 0.1 mg) [ng/mL] | concentration at 15 min ([2]; other: vaginal application, 15 min after vaginal application of 1 ml of formulation 0.075%) [ng/mL] | concentration at 15 min ([2]; other: vaginal application, 15 min after vaginal application of 1 ml of formulation 0.15%) [ng/mL] | concentration at 15 min ([2]; other: vaginal application, 15 min after vaginal application of 1 ml of formulation 0.3%) [ng/mL] | plasma levels with increasing concentration of active compound in the formulation ([2]; vaginal application, 0.075-0.3%) | nerve-induced increase in genital tissue OxyHb ([1]; pelvic nerve stimulation at 15 min) | nerve-induced increase in genital tissue OxyHb ([1]; pelvic nerve stimulation at 30 min) | AUC of genital tissue OxyHb relative to vehicle ([1]; topical vaginal, 0-35 min, dose-dependent trend) | mean AUC of genital tissue OxyHb compared to vehicle-treated control group ([1]; topical vaginal, 1 ml formulation 0.15%) | mean AUC of genital tissue OxyHb compared to vehicle-treated control group ([1]; topical vaginal, 1 ml formulation 0.3%) | mean area-under-the-curve (AUC) of genital tissue OxyHb compared to vehicle ([1]; topical vaginal, 1 ml formulation, 0-15 min, all concentrations except 0.15%) | duration of sustained genital engorgement following formulation administration ([1]; topical vaginal, duration of the experimental protocol) | response to pelvic nerve stimulation (genital tissue oxyhemoglobin) vs control stimulations ([1]; 15 min after injection) | response to pelvic nerve stimulation (genital tissue oxyhemoglobin) vs control stimulations ([1]; 30 min after injection)
COc1cc2nc(N3CCN(C(=O)COc4c(OC)cccc4C(C)C)CC3)nc(N)c2cc1OC.Cl.Cl [Rec 15/2615 hydrochloride] | higher than that obtained by direct injection |  |  |  |  |  |  |  |  |  |  |  |  |  |  |  | 
COc1cc2nc(N3CCN(C(=O)COc4c(OC)cccc4C(C)C)CC3)nc(N)c2cc1OC [Rec 15/2615, 4-amino-6,7-dimethoxy-2-{4-[(2-isopropyl-6-methoxyphenoxy)acetyl]-1-piperazinyl}quinazoline] |  | no significant effect | did not affect systemic blood pressure | 26.3 | 10.6 | 45.2 | 72.5 | dose-dependent increase | significant increase | remained high | higher AUC values relative to vehicle | statistically significant difference | statistically significant difference | similar | up to 45 minutes | significantly enhanced response | did not reach statistical significance
